From patent US20110237497A1, “COMPOSITIONS OF A V-ATPASE INHIBITOR IN COMBINATION WITH A GLUCOCORTICOID RECEPTOR LIGAND AND METHODS OF USE” (priority 2009, published 2011)

System: GR
Assay: GR transactivation, MMTV (pHHLuc) luciferase reporter in AD293 cells
Assay type: cell-based
Conditions: Dexamethasone 1 nM, 10 nM, 100 nM and 1 μM with or without Concanamycin A 1 nM, FIG. 2
Description: (§1) AD293 cells in 24 wells plate were transfected with 0.1 ng GR, 100 ng pHHLuc reporter together with 10 ng Renilla control plasmids in each well, then induced by EtOH (vehicle control), Dexamethasone (1 nM, 10 nM, 100 nM and 1 μM), with or without Bafilomycin A1 (100 nM). Dual-Luciferase values were measured by Promega standard manual.
as §1, with “Concanamycin A (1” for “Bafilomycin A1 (100”
FIG. 8 is a graph showing a summary of V-ATPase inhibitors in enhancing GR-Dex activity on MMTV (pHHLuc) reporter in AD293 cells. AD293 cells in 24 wells plate were transfected with 0.1 ng GR, 100 ng pHHLuc reporter together with 10 ng Renilla control plasmids in each well, then induce by EtOH (vehicle control), Dexamethasone (10 nM), with different V-ATPase inhibitors (Bafilomycin A1 100 nM; Concanamycin A 1 nM; Lobatamide A 100 nM) or vehicle control. Dual-Luciferase values were measured by Promega standard manual.

C/C=C/C1OC(O)(C(C)C(O)C(C)C2OC(=O)/C(OC)=C/C(C)=C/C(C)C(O)C(CC)C(O)C(C)C/C(C)=C/C=C/C2OC)CC(OC2CC(O)C(OC(N)=O)C(C)O2)C1C (stereo not shown) [Concanamycin A, 6-(2-(4-((4E,6E,14E,16Z)-11-ethyl-10,12-dihydroxy-3,17-dimethoxy-7,9,13,15-tetramethyl-18-oxooxacyclooctadeca-4,6,14,16-tetraen-2-yl)-3-hydroxypentan-2-yl)-2-hydroxy-5-methyl-6-((E)-prop-1-enyl)tetrahydro-2H-pyran-4-yloxy)-4-hydroxy-2-methyltetrahydro-2H-pyran-3-yl carbamate]
GR-dex dose-response of induction on MMTV (pHHLuc) reporter (GR transactivation): synergizes with Dex
